Test results as given in patent publication US8822517B2, “Arylosulfonamides for the treatment of CNS diseases” (Adamed SP. Z O.O., priority 2010, dated 2014).

Assays:
[1] = target: T1, serotonine transporter (SERT) receptor (Homo sapiens, UniProt P31645); experiment: Binding assay SERT (h), [3H]imipramine, CHO cells; conditions: for inhibition at 1 µM: read-out: SERT [%]
T1 construct: expressed in transfected cells; host or cells: CHO cells
Protocol: (§1) The specific ligand binding to the receptors is defined as the difference between the total binding and the nonspecific binding determined in the presence of an excess of so unlabelled ligand.
(§2) The specific Ligand binding to the receptor is defined as the difference between total and non-specific binding determined in the presence of an excess of unlabelled ligand. The compounds were tested at a concentration of 1×10^−6 M, and scintillation counting was the method of detection of ligand binding.

dopaminergic D2 receptor = dopaminergic D2 receptor (Homo sapiens, UniProt P14416); experiment: Binding assay D2S (h), [3H]methyl-spiperone, HEK-293 cells; parameters: expressed in transfected cells; host or cells: HEK-293 cells; conditions: for inhibition at 1 µM: read-out: D2 [%]
Protocol: as §1, §2

[2] = target: T2, serotoninergic 5-HT1A receptor (Homo sapiens, UniProt P08908); experiment: Binding assay 5-HT1A (h), [3H]8-OH-DPAT, HEK-293 cells; parameters: expressed in transfected cells; host or cells: HEK-293 cells; conditions: for inhibition at 1 µM: read-out: 5-HT1A
T2 sequence (P08908 1-422): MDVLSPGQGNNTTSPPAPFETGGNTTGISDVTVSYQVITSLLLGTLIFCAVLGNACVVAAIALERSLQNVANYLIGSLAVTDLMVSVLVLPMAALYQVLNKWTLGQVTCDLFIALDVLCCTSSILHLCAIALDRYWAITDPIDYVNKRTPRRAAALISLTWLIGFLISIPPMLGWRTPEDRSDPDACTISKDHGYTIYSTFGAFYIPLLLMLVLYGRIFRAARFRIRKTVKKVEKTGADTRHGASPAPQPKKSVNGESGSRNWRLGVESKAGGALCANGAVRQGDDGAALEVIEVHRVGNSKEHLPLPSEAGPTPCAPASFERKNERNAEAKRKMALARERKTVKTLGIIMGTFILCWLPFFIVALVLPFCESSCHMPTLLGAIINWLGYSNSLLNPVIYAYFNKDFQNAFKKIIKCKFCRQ
Protocol: as §1, §2

dopaminergic D3 receptor = dopaminergic D3 receptor (Homo sapiens, UniProt P35462); experiment: Binding assay D3 (h), [3H]methyl-spiperone, CHO cells; parameters: expressed in transfected cells; host or cells: CHO cells; conditions: for inhibition at 1 µM: read-out: D3 [%]
Protocol: as §1, §2

[3] = target: serotoninergic 5-HT2A receptor (Homo sapiens, UniProt P28223); experiment: Binding assay 5-HT2A (h), [3H]ketanserin, HEK-293 cells; parameters: expressed in transfected cells; host or cells: HEK-293 cells; conditions: for inhibition at 1 µM: read-out: 5-HT2A
Protocol: as §1, §2

[4] = target: serotoninergic 5-HT6 receptor (Homo sapiens, UniProt P50406); experiment: Binding assay 5-HT6 (h), [3H]LSD, CHO cells; parameters: expressed in transfected cells; host or cells: CHO cells; conditions: for inhibition at 1 µM: read-out: 5-HT6
Protocol: as §1, §2

[5] = target: serotoninergic 5-HT7 receptor (Homo sapiens, UniProt P34969); experiment: Binding assay 5-HT7 (h), [3H]LSD, CHO cells; parameters: expressed in transfected cells; host or cells: CHO cells; conditions: for inhibition at 1 µM: read-out: 5-HT7
Protocol: as §1, §2

adrenergic α1 receptor = experiment: Binding assay α1 (non-selective), [3H]prazosin, rat cerebral cortex; conditions: percent inhibition of control specific binding; compounds tested at 1×10^−6 M
Protocol: as §1, §2

[6] = percent inhibition of control specific binding, compounds tested at 1×10^−6 M

serotoninergic 5-HT6 receptor, sequence (P50406 whole entry): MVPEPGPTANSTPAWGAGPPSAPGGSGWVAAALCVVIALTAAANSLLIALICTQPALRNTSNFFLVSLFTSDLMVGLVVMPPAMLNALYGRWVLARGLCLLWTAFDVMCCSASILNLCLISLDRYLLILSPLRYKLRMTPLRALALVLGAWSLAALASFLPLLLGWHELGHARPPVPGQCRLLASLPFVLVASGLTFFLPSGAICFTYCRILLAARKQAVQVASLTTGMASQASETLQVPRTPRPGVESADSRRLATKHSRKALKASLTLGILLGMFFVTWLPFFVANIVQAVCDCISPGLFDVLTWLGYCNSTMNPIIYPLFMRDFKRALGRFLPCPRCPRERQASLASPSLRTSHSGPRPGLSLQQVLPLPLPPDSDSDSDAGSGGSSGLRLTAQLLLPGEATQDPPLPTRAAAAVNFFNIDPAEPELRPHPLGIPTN
dopaminergic D3 receptor, sequence (P35462 whole entry): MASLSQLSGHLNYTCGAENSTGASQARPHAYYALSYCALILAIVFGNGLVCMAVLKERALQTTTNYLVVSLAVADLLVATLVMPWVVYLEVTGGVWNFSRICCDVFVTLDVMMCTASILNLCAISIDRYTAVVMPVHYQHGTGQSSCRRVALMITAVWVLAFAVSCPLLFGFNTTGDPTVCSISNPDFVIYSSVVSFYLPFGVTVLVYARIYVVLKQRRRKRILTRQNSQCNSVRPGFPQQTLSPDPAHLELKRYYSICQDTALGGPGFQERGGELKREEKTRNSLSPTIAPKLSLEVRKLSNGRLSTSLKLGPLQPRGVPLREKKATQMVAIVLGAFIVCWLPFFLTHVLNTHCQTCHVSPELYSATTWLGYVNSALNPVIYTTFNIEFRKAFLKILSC
dopaminergic D2 receptor, sequence (P14416 1-414 isoform P14416-2): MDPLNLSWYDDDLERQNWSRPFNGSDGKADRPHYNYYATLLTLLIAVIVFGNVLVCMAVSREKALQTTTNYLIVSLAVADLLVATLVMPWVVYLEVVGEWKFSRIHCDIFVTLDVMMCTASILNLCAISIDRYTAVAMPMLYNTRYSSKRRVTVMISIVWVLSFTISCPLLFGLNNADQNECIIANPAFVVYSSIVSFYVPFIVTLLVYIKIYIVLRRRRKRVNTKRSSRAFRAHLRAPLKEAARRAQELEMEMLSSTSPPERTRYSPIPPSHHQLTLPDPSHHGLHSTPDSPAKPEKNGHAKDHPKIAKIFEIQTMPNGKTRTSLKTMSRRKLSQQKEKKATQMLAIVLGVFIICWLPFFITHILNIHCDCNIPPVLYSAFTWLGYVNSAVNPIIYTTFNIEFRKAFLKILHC
serotoninergic 5-HT2A receptor, sequence (P28223 whole entry): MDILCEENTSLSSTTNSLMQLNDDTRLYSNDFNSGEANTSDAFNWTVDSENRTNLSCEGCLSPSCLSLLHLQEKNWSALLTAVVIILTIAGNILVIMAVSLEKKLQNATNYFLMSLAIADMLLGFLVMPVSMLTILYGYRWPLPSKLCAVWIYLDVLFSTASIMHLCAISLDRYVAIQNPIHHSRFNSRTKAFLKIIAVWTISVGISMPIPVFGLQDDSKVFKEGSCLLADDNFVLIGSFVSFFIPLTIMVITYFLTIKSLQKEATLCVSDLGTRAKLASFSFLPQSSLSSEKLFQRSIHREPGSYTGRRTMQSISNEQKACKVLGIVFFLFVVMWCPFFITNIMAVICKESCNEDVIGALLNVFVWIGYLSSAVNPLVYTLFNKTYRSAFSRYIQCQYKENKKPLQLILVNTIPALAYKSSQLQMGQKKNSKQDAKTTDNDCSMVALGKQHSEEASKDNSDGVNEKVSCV
T1 sequence (P31645 whole entry): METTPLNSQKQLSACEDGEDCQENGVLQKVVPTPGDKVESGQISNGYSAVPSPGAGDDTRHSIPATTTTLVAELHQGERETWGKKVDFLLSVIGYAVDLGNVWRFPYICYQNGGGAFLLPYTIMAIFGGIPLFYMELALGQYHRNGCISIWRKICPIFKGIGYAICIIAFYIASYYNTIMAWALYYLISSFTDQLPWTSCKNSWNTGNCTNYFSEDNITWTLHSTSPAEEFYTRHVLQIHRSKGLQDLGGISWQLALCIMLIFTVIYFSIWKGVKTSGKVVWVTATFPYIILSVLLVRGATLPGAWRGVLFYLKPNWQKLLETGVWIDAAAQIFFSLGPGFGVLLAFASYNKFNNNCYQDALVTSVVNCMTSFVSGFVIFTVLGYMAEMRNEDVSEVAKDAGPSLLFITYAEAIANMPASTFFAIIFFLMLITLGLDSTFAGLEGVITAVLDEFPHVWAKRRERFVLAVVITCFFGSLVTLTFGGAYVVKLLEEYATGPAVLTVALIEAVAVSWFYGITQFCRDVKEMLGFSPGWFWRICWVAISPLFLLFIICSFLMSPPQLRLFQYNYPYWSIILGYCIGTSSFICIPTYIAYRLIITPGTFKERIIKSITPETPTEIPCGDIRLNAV
serotoninergic 5-HT7 receptor, sequence (P34969 whole entry): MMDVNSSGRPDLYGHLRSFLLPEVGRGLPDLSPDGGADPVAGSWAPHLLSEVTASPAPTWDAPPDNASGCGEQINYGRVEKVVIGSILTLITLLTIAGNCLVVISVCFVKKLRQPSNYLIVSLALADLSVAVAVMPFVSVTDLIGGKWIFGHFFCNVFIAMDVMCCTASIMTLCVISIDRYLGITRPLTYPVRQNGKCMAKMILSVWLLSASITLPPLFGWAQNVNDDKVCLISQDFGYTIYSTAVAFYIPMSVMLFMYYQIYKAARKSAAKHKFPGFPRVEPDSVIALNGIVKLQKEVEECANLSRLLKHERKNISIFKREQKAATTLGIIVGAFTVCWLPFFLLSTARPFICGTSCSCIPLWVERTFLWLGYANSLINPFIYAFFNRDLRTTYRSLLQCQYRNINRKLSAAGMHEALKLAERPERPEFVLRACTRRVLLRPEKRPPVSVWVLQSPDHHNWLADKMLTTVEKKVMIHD

## COc1ccc(S(=O)(=O)NCCCCN2CC=C(c3c[nH]c4ccc(Cl)cc34)CC2)cc1 [Compound 42, 4-Methoxy-N{4-[4-(5-chloro-1H-indol-3-yl)-3,6-dihydropyridin-1(2H)-yl]butyl}benzenesulphonamide]
[1]; [6]
  SERT [%]: 96%
Dopaminergic D2 receptor; [6]
  D2 [%]: 74%
[2]; [6]
  5-HT1A: 90%
Dopaminergic D3 receptor; [6]
  D3 [%]: 101%
[3]; [6]
  5-HT2A: 77%
[4]; [6]
  5-HT6: 96%
[5]; [6]
  5-HT7: 76%
Adrenergic α1 receptor
  α1 [%]: 77%

## O=S(=O)(NCCCN1CCN(c2nsc3ccccc23)CC1)c1ccc2cc(Cl)ccc2c1 [Compound 62, N-[3-[4-(1,2-Benzothiazol-3-yl)piperazin-1-yl]propyl]-6-chloro-naphthalene-2-sulphonamide]
[1]
  inhibition at 1 µM: 15%
Dopaminergic D2 receptor
  inhibition at 1 µM: 92%
[2]
  inhibition at 1 µM: 46%
Dopaminergic D3 receptor
  inhibition at 1 µM: 63%
[3]
  inhibition at 1 µM: 101%
[4]
  inhibition at 1 µM: 69%
[5]
  inhibition at 1 µM: 78%
Adrenergic α1 receptor
  α1 [%]: 61%

## O=S(=O)(NCCCCN1CCN(c2nsc3ccccc23)CC1)c1cccc(Cl)c1 [Compound 69, N-[4-[4-(1,2-Benzothiazol-3-yl)piperazin-1-yl]butyl]-3-chlorobenzenesulphonamide]
[1]
  inhibition at 1 µM: 6%
Dopaminergic D2 receptor
  inhibition at 1 µM: 106%
[2]
  inhibition at 1 µM: 80%
Dopaminergic D3 receptor
  inhibition at 1 µM: 77%
[3]
  inhibition at 1 µM: 92%
[4]
  inhibition at 1 µM: 88%
[5]
  inhibition at 1 µM: 96%
Adrenergic α1 receptor
  α1 [%]: 94%

## O=S(=O)(NCCCCN1CCN(c2nsc3ccccc23)CC1)c1cccc(F)c1 [Compound 71, N-[4-[4-(1,2-Benzothiazol-3-yl)piperazin-1-yl]butyl]-3-fluorobenzenesulphonamide]
[1]
  inhibition at 1 µM: 41%
Dopaminergic D2 receptor
  inhibition at 1 µM: 103%
[2]
  inhibition at 1 µM: 89%
Dopaminergic D3 receptor
  inhibition at 1 µM: 91%
[3]
  inhibition at 1 µM: 94%
[4]
  inhibition at 1 µM: 76%
[5]
  inhibition at 1 µM: 99%
Adrenergic α1 receptor
  α1 [%]: 99%

## O=S(=O)(NCCCN1CCN(c2nsc3ccccc23)CC1)c1cccc(F)c1 [Compound 72, N-[3-[4-(1,2-Benzothiazol-3-yl)piperazin-1-yl]propyl]-3-fluorobenzenesulphonamide]
[1]
  inhibition at 1 µM: 44%
Dopaminergic D2 receptor
  inhibition at 1 µM: 99%
[2]
  inhibition at 1 µM: 95%
Dopaminergic D3 receptor
  inhibition at 1 µM: 95%
[3]
  inhibition at 1 µM: 94%
[4]
  inhibition at 1 µM: 78%
[5]
  inhibition at 1 µM: 101%
Adrenergic α1 receptor
  α1 [%]: 93%

## N#Cc1cccc(S(=O)(=O)NCCCCN2CCN(c3nsc4ccccc34)CC2)c1 [Compound 73, N-[4-[4-(1,2-Benzothiazol-3-yl)piperazin-1-yl]butyl]-3-cyanobenzenesulphonamide]
[1]
  inhibition at 1 µM: 37%
Dopaminergic D2 receptor
  inhibition at 1 µM: 102%
[2]
  inhibition at 1 µM: 92%
Dopaminergic D3 receptor
  inhibition at 1 µM: 94%
[3]
  inhibition at 1 µM: 81%
[4]
  inhibition at 1 µM: 82%
[5]
  inhibition at 1 µM: 91%
Adrenergic α1 receptor
  α1 [%]: 98%

## O=S(=O)(NCCCN1CCN(c2nsc3ccccc23)CC1)c1cnc2ccccn12 [Compound 76, N-[3-[4-(1,2-Benzothiazol-3-yl)piperazin-1-yl]propyl]imidazo[1,2-a]pyridine-3-sulphonamide]
[1]
  inhibition at 1 µM: 15%
Dopaminergic D2 receptor
  inhibition at 1 µM: 94%
[2]
  inhibition at 1 µM: 90%
Dopaminergic D3 receptor
  inhibition at 1 µM: 71%
[3]
  inhibition at 1 µM: 81%
[4]
  inhibition at 1 µM: 70%
[5]
  inhibition at 1 µM: 86%
Adrenergic α1 receptor
  α1 [%]: 95%

## O=S(=O)(NCCCCN1CCN(c2noc3ccccc23)CC1)c1cccc(Cl)c1 [Compound 85, N-[4-[4-(1,2-Benzoxazol-3-yl)piperazin-1-yl]butyl]-3-chlorobenzenesulphonamide]
[1]
  inhibition at 1 µM: 2%
Dopaminergic D2 receptor
  inhibition at 1 µM: 100%
[2]
  inhibition at 1 µM: 54%
Dopaminergic D3 receptor
  inhibition at 1 µM: 77%
[3]
  inhibition at 1 µM: 88%
[4]
  inhibition at 1 µM: 77%
[5]
  inhibition at 1 µM: 99%
Adrenergic α1 receptor
  α1 [%]: 98%

## O=S(=O)(NCCCCN1CCN(c2noc3ccccc23)CC1)c1cccc(F)c1 [Compound 87, N-[4-[4-(1,2-Benzoxazol-3-yl)piperazin-1-yl]butyl]-3-fluorobenzenesulphonamide]
[1]
  inhibition at 1 µM: 2%
Dopaminergic D2 receptor
  inhibition at 1 µM: 87%
[2]
  inhibition at 1 µM: 41%
Dopaminergic D3 receptor
  inhibition at 1 µM: 77%
[3]
  inhibition at 1 µM: 89%
[4]
  inhibition at 1 µM: 67%
[5]
  inhibition at 1 µM: 90%
Adrenergic α1 receptor
  α1 [%]: 98%

## O=S(=O)(NCCCCN1CCN(c2noc3ccccc23)CC1)c1cccc(C(F)(F)F)c1 [Compound 91, N-[4-[4-(1,2-Benzoxazol-3-yl)piperazin-1-yl]butyl]-3-(trifluoromethyl)benzenesulphonamide]
[1]
  inhibition at 1 µM: 2%
Dopaminergic D2 receptor
  inhibition at 1 µM: 92%
[2]
  inhibition at 1 µM: 40%
Dopaminergic D3 receptor
  inhibition at 1 µM: 70%
[3]
  inhibition at 1 µM: 95%
[4]
  inhibition at 1 µM: 83%
[5]
  inhibition at 1 µM: 99%
Adrenergic α1 receptor
  α1 [%]: 99%

## O=S(=O)(NCCCCN1CCN(c2noc3ccccc23)CC1)c1ccc(Cl)c(Cl)c1 [Compound 93, N-[4-[4-(1,2-Benzoxazol-3-yl)piperazin-1-yl]butyl]-3,4-dichlorobenzenesulphonamide]
[1]
  inhibition at 1 µM: 0%
Dopaminergic D2 receptor
  inhibition at 1 µM: 98%
[2]
  inhibition at 1 µM: 48%
Dopaminergic D3 receptor
  inhibition at 1 µM: 86%
[3]
  inhibition at 1 µM: 90%
[4]
  inhibition at 1 µM: 92%
[5]
  inhibition at 1 µM: 88%
Adrenergic α1 receptor
  α1 [%]: 97%

## O=S(=O)(NCCCCN1CCC(c2noc3cc(F)ccc23)CC1)c1cccc(Cl)c1 [Compound 105, 3-Chloro-N-[4-[4-(6-fluoro-1,2-benzoxazol-3-yl)piperidin-1-yl]butyl]benzenesulphonamide]
[1]
  inhibition at 1 µM: -11%
Dopaminergic D2 receptor
  inhibition at 1 µM: 107%
[2]
  inhibition at 1 µM: 41%
Dopaminergic D3 receptor
  inhibition at 1 µM: 88%
[3]
  inhibition at 1 µM: 91%
[4]
  inhibition at 1 µM: 87%
[5]
  inhibition at 1 µM: 85%
Adrenergic α1 receptor
  α1 [%]: 96%

## O=S(=O)(NCCCCN1CCC(c2noc3cc(F)ccc23)CC1)c1cccc(F)c1 [Compound 107, 3-Fluoro-N-[4-[4-(6-fluoro-1,2-benzoxazol-3-yl)piperidin-1-yl]butyl]benzenesulphonamide]
[1]
  inhibition at 1 µM: -12%
Dopaminergic D2 receptor
  inhibition at 1 µM: 104%
[2]
  inhibition at 1 µM: 38%
Dopaminergic D3 receptor
  inhibition at 1 µM: 97%
[3]
  inhibition at 1 µM: 95%
[4]
  inhibition at 1 µM: 75%
[5]
  inhibition at 1 µM: 91%
Adrenergic α1 receptor
  α1 [%]: 100%

## O=S(=O)(NCCCN1CCC(c2noc3cc(F)ccc23)CC1)c1cccc(F)c1 [Compound 108, 3-Fluoro-N-[3-[4-(6-fluoro-1,2-benzoxazol-3-yl)piperidin-1-yl]propyl]benzenesulphonamide]
[1]
  inhibition at 1 µM: -9%
Dopaminergic D2 receptor
  inhibition at 1 µM: 106%
[2]
  inhibition at 1 µM: 48%
Dopaminergic D3 receptor
  inhibition at 1 µM: 98%
[3]
  inhibition at 1 µM: 88%
[4]
  inhibition at 1 µM: 86%
[5]
  inhibition at 1 µM: 90%
Adrenergic α1 receptor
  α1 [%]: 100%

## Cc1[nH]c2ccc(Cl)cc2c1C1=CCN(CCNS(=O)(=O)c2cccc(F)c2)CC1 [Compound 450, N-[2-[4-(5-Chloro-2-methyl-1H-indol-3-yl)-3,6-dihydro-2H-pyridin-1-yl]ethyl]-3-fluorobenzenesulphonamide]
[1]
  inhibition at 1 µM: 54%
Dopaminergic D2 receptor
  inhibition at 1 µM: 15%
Dopaminergic D3 receptor
  inhibition at 1 µM: 39%
[4]
  inhibition at 1 µM: 96%
[5]
  inhibition at 1 µM: 50%
Adrenergic α1 receptor
  α1 [%]: −1%

## Cc1[nH]c2ccc(Cl)cc2c1C1=CCN(CCNS(=O)(=O)c2ccc(Cl)cc2)CC1 [Compound 451, 4-Chloro-N-[2-[4-(5-chloro-2-methyl-1H-indol-3-yl)-3,6-dihydro-2H-pyridin-1-yl]ethyl]-benzensulphonamide]
[1]
  inhibition at 1 µM: 32%
Dopaminergic D2 receptor
  inhibition at 1 µM: 46%
Dopaminergic D3 receptor
  inhibition at 1 µM: 30%
[4]
  inhibition at 1 µM: 97%
[5]
  inhibition at 1 µM: 25%
Adrenergic α1 receptor
  α1 [%]: −4%

## Cc1[nH]c2ccc(Cl)cc2c1C1=CCN(CCNS(=O)(=O)c2cccc(O)c2)CC1 [Compound 453, N-[2-[4-(5-Chloro-2-methyl-1H-indol-3-yl)-3,6-dihydro-2H-pyridin-1-yl]ethyl]-3-hydroxybenzenesulphonamide]
[1]
  inhibition at 1 µM: 23%
Dopaminergic D2 receptor
  inhibition at 1 µM: 48%
Dopaminergic D3 receptor
  inhibition at 1 µM: 56%
[4]
  inhibition at 1 µM: 107%
[5]
  inhibition at 1 µM: 76%
Adrenergic α1 receptor
  α1 [%]: 23%
